Reference: US12528760B2 (DOMPÉ FARMACEUTICI S.P.A., priority 2019, dated 2026)
Values after ≈ are worked out from the molar mass of the structure shown.

Assay: Solubility of Lysine in 2-Methyl-1-propanol
Format: physicochemical
Conditions: organic solvent or mixture

NCCCC[C@H](N)C(=O)O [Lysine]
solubility: ~26 mg/mL (≈ 178 mM)
